Measurements: US4032635A, “Pharmaceutical method for the therapy of immune diseases” (Zaidan Hojin Biseibutsu Kagaku Kenkyu Kai, priority 1975, dated 1977)
Read-outs that look alike come from different tables or passages of the source. Where a SMILES comes first, the peptide text is derived from it. [ ]: non-standard residue; d: D form. The star is where a group is joined. Sta = CC(C)C[C@H](N)[C@@H](O)CC(=O)O; Isovaleryl = CC(C)CC(=O)*

Legend:
[1] = system: Delayed-Type Hypersensitivity (DTH) to sheep red blood cells (SRBC); assay: Suppression of delayed-type hypersensitivity (SRBC footpad swelling); type: in vivo, mouse; details: for inhibition in vivo at 1 mg: Erythrocyte; for suppression of DTH reaction: anti-inflammatory drugs and protease-inhibitors, 1 mg./mouse
Protocol: The compounds of Formula (I) show suppression of various delayed-type hypersensitivity. In reference to the method by Lagrange [J. Exp. Med. 139, 528 (1974)], 10^8 sheep red blood cells (SRBC) without adjuvant were subcutaneously injected into the mouse hind footpad to immunize the animal. Four days later the animals were challenged by subcutaneous injection of 10^8 SRBC into another footpad. DTH response was measured as the increase in the thickness of footpad 24 hours after the injection of SRBC.
Varying doses of Compound-1 were administered orally or intraperitoneally either at the time of immunization (day 0) or challenge (day 4).
In FIG. 1 the ordinate indicates the swelling (× 0.1 mm.) of mice footpads on day 5 and the abscissa indicates the dose of Compound-1 per mouse administered by the oral (right) and intraperitoneal (left) routes. Solid line curve indicates the relationship when Compound-1 was administered on day 0 and the dotted line curve indicates the relationship when given on day 4.
The compounds were administered intraperitoneally in a dose 1 mg./mouse at the time of immunization (day 0) or challenge (day 4). Table 1 includes the results of humoral antibody response described later.

[2] = system: primary antibody formation to sheep red blood cells (SRBC), spleen cells; assay: Suppression of primary antibody formation (plaque forming cells, Jerne's method); type: in vivo, mice (ddY-strain); details: for inhibition in vivo at 1 mg: Erythrocyte, ip, 96 h, read-out: Suppression, Plaque Forming Cells (suppression rate of primary antibody formation)
Protocol: 10^8 sheep red blood cells (SRBC) were injected intravenously into ddY-strain mice to immunize the animals, when the compounds of Formula (I) were administered intraperitoneally.
Each compound was administered intraperitoneally in the dosage of 1 mg./mouse.

[3] = Acute toxicity, intraperitoneal; details: mouse, in vivo, ip, mice, read-out: LD50 (approximate)
Protocol: Acute toxicological studies were carried out on mice by intraperitoneal administration of the compounds of Formula (I). The approximate LD50 values for representative compounds are given as follows: […]

[4] = system: passive cutaneous anaphylaxis (PCA); assay: Suppression of passive cutaneous anaphylaxis (PCA); type: in vivo, guinea pigs; details: oral 100 mg./kg.; dilution giving a 10 mm. diameter blue zone; control 1060
Protocol: The compounds of Formula (I) are active in suppressing passive cutaneous anaphylaxis (PCA) in guinea pigs. Guinea pigs received intradarmally serial dilutions of antiserum (0.1 ml.), which was obtained from guinea pigs immunized with a mixture of egg albumin and Freund's complete adjuvant. At the time of sensitization with antiserum, the compound of Formula (I) was administered either orally (100 mg./kg.) or intraperitoneally (50 mg./kg.).
Four hours later the animals were challenged by intravenous injection of a mixture of 5 mg. egg albumin and Evans blue dye. The reaction was measured 30 minutes later by the blue zone which emerged at the point of antiserum injection.

[5] = system: carrageenin-induced edema; details: 1 mg./mouse; cited from earlier work
[6] = 96 h, 1 mg./mouse i.p., at challenge (day 4), read-out: Suppression, Delayed-Type Hypersensitivity, Administered at Induction (suppression rate)
[7] = ip, 0 h, 1 mg./mouse i.p., at immunization (day 0), read-out: Suppression, Delayed-Type Hypersensitivity, Administered at Immunization (suppression rate)

SMILES	inhibition in vivo at 1 mg [1, 6] [%]	inhibition in vivo at 1 mg [1, 7] [%]	inhibition in vivo at 1 mg ([2]; 1 mg./mouse i.p.) [%]	LD50 [3] [mg/kg]	further results
COc1c(Cl)cc(NC(=O)c2ccccc2O)cc1Cl [Compound 3]	> 75	0 to 25	50 to 75	–	–
CCC(=O)Oc1ccccc1C(=O)Nc1cc(Cl)c(OC(=O)CC)c(Cl)c1 [Compound 5]	> 75	0 to 25	50 to 75	–	–
O=C(Oc1ccccc1C(=O)Nc1cc(Cl)c(OC(=O)c2ccccc2)c(Cl)c1)c1ccccc1 [Compound 6]	> 75	0 to 25	> 75	2800	–
CC(=O)Oc1ccccc1C(=O)Nc1cc(Cl)cc(Cl)c1OC(C)=O [Compound 7]	> 75	0 to 25	50 to 75	> 3000	–
CC(=O)Oc1ccccc1C(=O)Nc1cc(Cl)c(O)c(Cl)c1 [Compound 8]	0 to 25	0 to 25	25 to 50	–	–
O=C(O)COc1c(Cl)cc(NC(=O)c2ccccc2O)cc1Cl [Compound 9]	> 75	0 to 25	0 to 25	–	–
O=C(Nc1cc(Cl)c(O)c(Cl)c1)c1ccc(F)cc1O [Compound 10]	> 75	0 to 25	25 to 50	–	–
Cc1ccc(C(=O)Nc2cc(Cl)c(O)c(Cl)c2)c(O)c1 [Compound 11]	0 to 25	> 75	25 to 50	–	–
O=C(Nc1cc(Br)cc(Br)c1O)c1ccccc1O [Compound 13]	50 to 75	50 to 75	0 to 25	1280	–
CCOc1c(Br)cc(NC(=O)c2ccccc2O)cc1Br [Compound 14]	> 75	50 to 75	0 to 25	–	–
CCC(=O)Oc1ccccc1C(=O)Nc1cc(Br)cc(Br)c1OC(=O)CC [Compound 15]	50 to 75	50 to 75	0 to 25	2200	–
Cc1ccc(C(=O)Nc2cc(Br)c(O)c(Br)c2)c(O)c1 [Compound 16]	> 75	50 to 75	0 to 25	–	–
O=C(Nc1cc(F)c(O)c(Cl)c1)c1ccccc1O [Compound 17]	> 75	0 to 25	> 75	–	–
COc1c(F)cc(NC(=O)c2ccc(Cl)cc2O)cc1Cl [Compound 18]	> 75	0 to 25	25 to 50	–	–
Cc1cc(Cl)cc(NC(=O)c2ccccc2O)c1O [Compound 19]	25 to 50	0 to 25	25 to 50	1800	–
Cc1cc(Cl)c(O)c(NC(=O)c2ccccc2O)c1 [Compound 20]	> 75	0 to 25	50 to 75	–	–
O=C(Nc1cc([N+](=O)[O-])cc([N+](=O)[O-])c1O)c1ccccc1O [Compound 21]	–	–	–	–	inhibition in vivo at 1 mg ([1]; Mus musculus, 96 h, read-out: Suppression, Delayed-Type Hypersensitivity, Administered at Induction (suppression rate)): > 75%; inhibition in vivo at 1 mg ([1]; Mus musculus, ip, 0 h, read-out: Suppression, Delayed-Type Hypersensitivity, Administered at Immunization (suppression rate)): 50 to 75%; inhibition in vivo at 1 mg ([2]; Mus musculus): 0 to 25%

SMILES	inhibition in vivo at 1 mg [1, 6] [%]	inhibition in vivo at 1 mg [1, 7] [%]	inhibition in vivo at 1 mg ([2]; 1 mg./mouse i.p.) [%]	LD50 [3] [mg/kg]	further results
O=C(Nc1ccc(O)c(Cl)c1)c1ccccc1O [Compound 22]	0 to 25	0 to 25	> 75	–	–
O=C(Nc1cccc(Cl)c1O)c1ccccc1O [Compound 23]	0 to 25	0 to 25	50 to 75	1550	–
CCOc1ccc(NC(=O)c2ccc(F)cc2O)cc1Cl [Compound 24]	50 to 75	0 to 25	25 to 50	–	–
CC(=O)Oc1ccccc1C(=O)Nc1cccc(Cl)c1OC(C)=O [Compound 25]	25 to 50	0 to 25	50 to 75	2500	–
O=C(Nc1ccc(O)cc1)c1ccccc1O [Compound 26]	50 to 75	0 to 25	50 to 75	–	–
COc1ccc(NC(=O)c2ccc(F)cc2O)cc1 [Compound 28]	> 75	0 to 25	> 75	2800	–
CCOc1ccc(NC(=O)c2ccc(F)cc2O)cc1 [Compound 31]	> 75	0 to 25	50 to 75	–	–
COc1ccc(NC(=O)c2ccc(C)cc2OC(C)=O)cc1 [Compound 32]	–	–	–	–	Suppression, Delayed-Type Hypersensitivity, Administered at Induction (suppression rate) ([1]; 1 mg./mouse i.p., at challenge (day 4)): + (25 - 50%+-); Suppression, Delayed-Type Hypersensitivity, Administered at Immunization (suppression rate) ([1]; 1 mg./mouse i.p., at immunization (day 0)): - (0 - 25% +-); Suppression, Plaque Forming Cells (suppression rate of primary antibody formation) ([2]; 1 mg./mouse i.p.): - (0 - 25% +-)
CC(=O)Oc1ccccc1C(=O)Nc1cc(Cl)c(OC(C)=O)c(Cl)c1 [Compound-4, 2,4'-Diacetoxy-3',5'-dichlorobenzanilide]	> 75	0 to 25	50 to 75	–	–
O=C(Nc1cc(Br)c(O)c(Br)c1)c1ccccc1O [Compound-12, 3',5'-Dibromo-2,4'-dihydroxybenzanilide]	50 to 75	> 75	0 to 25	1100	Max. Dilution of Antiserum, Oral [4]: 548
COc1ccc(NC(=O)c2ccccc2O)cc1 [Compound-27, 2-Hydroxy-4'-methoxybenzanilide]	> 75	0 to 25	> 75	> 3000	Max. Dilution of Antiserum, Oral [4]: 284
COc1ccc(NC(=O)c2ccc(C)cc2O)cc1 [Compound-29, 2-Hydroxy-4-methyl-4'-methoxybenzanilide]	> 75	0 to 25	25 to 50	2500	–
CC(=O)Oc1ccccc1C(=O)O [aspirin, reference compound]	–	–	–	–	suppression of DTH reaction [1]: little suppression of this DTH reaction; suppression of carrageenin-induced edema [5]: strongly suppress carrageenin-induced edema
CC(C)C[C@H](NC(=O)[C@@H](NC(=O)N[C@@H](Cc1ccccc1)C(=O)O)[C@@H]1CCN=C(N)N1)C(=O)N[C@H](C=O)Cc1ccccc1 [chymostatin, reference compound]	–	–	–	–	suppression of DTH reaction [1]: little suppression of this DTH reaction; suppression of carrageenin-induced edema [5]: strongly suppress carrageenin-induced edema
CC(=O)N[C@@H](CC(C)C)C(=O)N[C@@H](CC(C)C)C(=O)N[C@H](C=O)CCCNC(=N)N [leupeptin, reference compound]	–	–	–	–	suppression of DTH reaction [1]: little suppression of this DTH reaction; suppression of carrageenin-induced edema [5]: strongly suppress carrageenin-induced edema
CC(C)CC(=O)N[C@H](C(=O)N[C@H](C(=O)N[C@@H](CC(C)C)[C@@H](O)CC(=O)N[C@@H](C)C(=O)N[C@@H](CC(C)C)[C@@H](O)CC(=O)O)C(C)C)C(C)C [pepstatin, reference compound] (Isovaleryl-VV[Sta]A[Sta]-OH)	–	–	–	–	suppression of DTH reaction [1]: little suppression of this DTH reaction; suppression of carrageenin-induced edema [5]: strongly suppress carrageenin-induced edema
